Assay results taken from patent publication US10894807B2 (Siemens Medical Solutions USA, Inc., priority 2011, dated 2021).

Target: human PSMA (Homo sapiens (Human), UniProt Q04609)
Assay: Enzymatic assay for in vitro evaluation of PSMA inhibitors (fluorescent assay of PSMA activity, NAAG substrate, OPA detection of glutamate)
Type: biochemical
Conditions: for PSMA Blkg % (10 μM): compound at 10 μM

Sequence of human PSMA (Q04609 whole entry): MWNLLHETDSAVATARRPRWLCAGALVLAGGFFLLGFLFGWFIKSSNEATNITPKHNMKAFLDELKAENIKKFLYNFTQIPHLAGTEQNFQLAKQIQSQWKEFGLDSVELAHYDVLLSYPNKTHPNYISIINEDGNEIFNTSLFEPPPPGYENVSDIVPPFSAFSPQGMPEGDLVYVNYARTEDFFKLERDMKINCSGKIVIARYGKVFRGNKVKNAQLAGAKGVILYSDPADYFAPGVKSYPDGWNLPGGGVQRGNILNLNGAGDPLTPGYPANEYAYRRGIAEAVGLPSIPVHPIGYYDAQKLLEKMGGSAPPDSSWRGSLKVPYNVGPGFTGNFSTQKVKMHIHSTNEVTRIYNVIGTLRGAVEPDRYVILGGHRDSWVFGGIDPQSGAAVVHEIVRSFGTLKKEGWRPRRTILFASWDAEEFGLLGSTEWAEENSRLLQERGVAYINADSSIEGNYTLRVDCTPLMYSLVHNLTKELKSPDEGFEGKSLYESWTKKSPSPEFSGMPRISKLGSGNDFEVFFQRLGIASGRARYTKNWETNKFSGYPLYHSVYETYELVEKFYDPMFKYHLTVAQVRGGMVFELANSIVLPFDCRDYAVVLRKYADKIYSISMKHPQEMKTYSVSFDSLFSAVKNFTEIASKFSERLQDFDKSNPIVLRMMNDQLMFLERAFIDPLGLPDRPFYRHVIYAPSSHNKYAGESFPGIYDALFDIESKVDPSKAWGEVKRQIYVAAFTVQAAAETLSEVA

Row | SMILES | Ki | PSMA Blkg % (10 μM)
1 | O=C(O)CC[C@H](NC(=O)N(O)C(CCCCNC(=O)OCc1ccccc1)C(=O)O)C(=O)O (stereo partly drawn) [P069, (13S)-10-Hydroxy-3,11-dioxo-1-phenyl-2-oxa-4,10,12-triazapentadecane-9,13,15-tricarboxylic Acid] | 250 nM | 94%
2 | O=C(O)CC[C@H](NC(=S)NC(CCCCNC(=O)OCc1ccccc1)C(=O)O)C(=O)O (stereo partly drawn) [P070, (13S)-3-Oxo-1-phenyl-11-thioxo-2-oxa-4,10,12-triazapentadecane-9,13,15-tricarboxylic Acid] | 59 nM | 94%
3 | O=C(O)CC[C@H](NC(=S)N(O)C(CCCCNC(=O)OCc1ccccc1)C(=O)O)C(=O)O (stereo partly drawn) [P071, (13S)-10-Hydroxy-3-oxo-1-phenyl-11-thioxo-2-oxa-4,10,12-triazapentadecane-9,13,15-tricarboxylic Acid] | 31 nM | 96%
4 | O=C(O)CC[C@@H](C(=O)O)N1C(=O)C(=O)N([C@@H](CCCCNC(=O)OCc2ccccc2)C(=O)O)C1=O [P072, (S)-2-(3-((S)-5-(Benzyloxycarbonylamino)-1-carboxypentyl)-2,4,5-trioxoimidazolidin-1-yl)pentanedioic Acid] | – | 39%
5 | [N-]=[N+]=NCCCCC(=O)NCCCC[C@@H](C(=O)O)N1C(=O)CC(=O)N([C@@H](CCC(=O)O)C(=O)O)C1=O [P073, (S)-2-(3-((S)-5-(5-Azidopentanamido)-1-carboxypentyl)-2,4,6-trioxotetrahydropyrimidin-1(2H)-yl)pentanedioic Acid] | – | 2%
6 | O=C(O)CC[C@@H](C(=O)O)N1C(=O)CC(=O)N([C@@H](CCCCNC(=O)Cn2cc(CCCF)nn2)C(=O)O)C1=O [P074, (S)-2-(3-((S)-1-Carboxy-5-(2-(4-(3-fluoropropyl)-1H-1,2,3-triazol-1-yl)acetamido)pentyl)-2,4,6-trioxotetrahydropyrimidin-1(2H)-yl)pentanedioic Acid] | – | 10%
7 | O=C(O)CC[C@H](NC(=O)N1CCC[C@H]1C(=O)O)C(=O)O [P075, (S)-2-((S)-2-Carboxypyrrolidine-1-carboxamido)pentanedioic Acid] | – | 32%
8 | O=C(O)CC[C@@H](C(=O)O)N1C(=O)CC(=O)N([C@@H](CCCCNC(=O)CCCCn2cc(CCCF)nn2)C(=O)O)C1=O [P076, (S)-2-(3-((S)-1-Carboxy-5-(5-(4-(3-fluoropropyl)-1H-1,2,3-triazol-1-yl)pentanamido)pentyl)-2,4,6-trioxotetrahydropyrimidin-1(2H)-yl)pentanedioic Acid] | – | 14%
9 | CC1(C)C(=O)N([C@@H](CCCCNC(=O)OCc2ccccc2)C(=O)O)C(=O)N([C@@H](CCC(=O)O)C(=O)O)C1=O [P077, (S)-2-(3-((S)-5-(Benzyloxycarbonylamino)-1-carboxypentyl)-5,5-dimethyl-2,4,6-trioxotetrahydropyrimidin-1(2H)-yl)pentanedioic Acid] | – | 28%
10 | CCC1C(=O)N([C@@H](CCCCNC(=O)OCc2ccccc2)C(=O)O)C(=O)N([C@@H](CCC(=O)O)C(=O)O)C1=O (stereo partly drawn) [P078, (2S)-2-(3-((S)-5-(Benzyloxycarbonylamino)-1-carboxypentyl)-5-ethyl-2,4,6-trioxotetrahydropyrimidin-1(2H)-yl)pentanedioic Acid] | > 312 nM | –
11 | CCC1(CC)C(=O)N([C@@H](CCCCNC(=O)OCc2ccccc2)C(=O)O)C(=O)N([C@@H](CCC(=O)O)C(=O)O)C1=O [P079, (S)-2-(3-((S)-5-(Benzyloxycarbonylamino)-1-carboxypentyl)-5,5-diethyl-2,4,6-trioxotetrahydropyrimidin-1(2H)-yl)pentanedioic Acid] | 313 nM | –
12 | CN(C(=O)N[C@@H](CCC(=O)O)C(=O)O)[C@@H](CCCCNC(=O)CCCCCn1cc(CCCF)nn1)C(=O)O [P080, (S)-2-(3-((S)-1-Carboxy-5-(6-(4-(3-fluoropropyl)-1H-1,2,3-triazol-1-yl)-hexamido)pentyl)-3-methylureido)pentanedioic Acid] | – | 90%
13 | O=C(O)CCC(NC(=O)N1CC(NC(=O)CCCCn2cc(CCCF)nn2)C[C@H]1C(=O)O)C(=O)O (stereo partly drawn) [P081, 2-((2S)-2-Carboxy-4-(5-(4-(3-fluoropropyl)-1H-1,2,3-triazol-1-yl)pentanamido)pyrrolidine-1-carboxamido)pentanedioic Acid] | – | 25%
14 | C[C@H](NC(=O)N[C@@H](CCC(=O)O)C(=O)O)C(=O)NCCF [P082, (S)-2-(3-((S)-1-((2-Fluoroethyl)amino)-1-oxopropan-2-yl)ureido)pentanedioic Acid] | – | 4%
15 | CN(CCCC[C@H](NC(=O)N[C@@H](CCC(=O)O)C(=O)O)C(=O)O)C(=O)OCc1ccccc1 [P083, (9S,13S)-4-Methyl-3,11-dioxo-1-phenyl-2-oxa-4,10,12-triazapentadecane-9,13,15-tricarboxylic Acid] | – | 100%
16 | O=C(O)CC[C@@H](C(=O)O)n1c(=O)[nH]c(=O)n([C@@H](CCCCNC(=O)OCc2ccccc2)C(=O)O)c1=O [P084, (S)-2-(3-((S)-5-(Benzyloxycarbonylamino)-1-carboxypentyl)-2,4,6-trioxo-1,3,5-triazinan-1-yl)pentanedioic Acid] | – | 19%

Row | SMILES | Ki | PSMA Blkg % (10 μM)
17 | Cn1c(=O)n([C@@H](CCCCNC(=O)OCc2ccccc2)C(=O)O)c(=O)n([C@@H](CCC(=O)O)C(=O)O)c1=O [P085, (S)-2-(3-((S)-5-(Benzyloxycarbonylamino)-1-carboxypentyl)-5-methyl-2,4,6-trioxo-1,3,5-triazinan-1-yl)pentanedioic Acid] | – | 0%
18 | CN1C(=O)N(C(CCC(=O)O)C(=O)O)C(=O)[C@@H]1CCCCNC(=O)c1ccc(N=[N+]=[N-])cc1 (stereo partly drawn) [P086, 2-((S)-4-(4-(4-Azidobenzamido)butyl)-3-methyl-2,5-dioxoimidazolidin-1-yl)-pentanedioic Acid] | – | 25%
19 | Cc1nc(N[C@@H](CCC(=O)O)C(=O)O)sc1C(=O)O [P087, (S)-2-((5-Carboxy-4-methylthiazol-2-yl)amino)pentanedioic Acid] | – | 3%
20 | O=NC1C(=O)N([C@@H](CCCCNC(=O)OCc2ccccc2)C(=O)O)C(=O)N([C@@H](CCC(=O)O)C(=O)O)C1=O (stereo partly drawn) [P088, (2S)-2-(3-((S)-5-(Benzyloxycarbonylamino)-1-carboxypentyl)-5-nitroso-2,4,6-trioxotetrahydropyrimidin-1(2H)-yl)pentanedioic Acid] | > 407 nM | –
21 | O=C(O)CC[C@@H](C(=O)O)N1C(=O)C([N+](=O)[O-])C(=O)N([C@@H](CCCCNC(=O)OCc2ccc([N+](=O)[O-])cc2)C(=O)O)C1=O (stereo partly drawn) [P089, (2S)-2-(3-((S)-1-Carboxy-5-((((4-nitrobenzyl)oxy)carbonyl)amino)pentyl)-5-nitro-2,4,6-trioxotetrahydropyrimidin-1(2H)-yl)pentanedioic Acid] | > 407 nM | –
22 | O=C(O)CC[C@H](NC(=O)CN(O)C(=O)CCCc1ccc(-n2cc(CCCF)nn2)cc1)C(=O)O [P090, (S)-2-(2-(4-(4-(4-(3-Fluoropropyl)-1H-1,2,3-triazol-1-yl)phenyl)-N-hydroxybutanamido)acetamido)pentanedioic Acid] | 313 nM | 85%
23 | NC1C(=O)N([C@@H](CCCCNC(=O)OCc2ccccc2)C(=O)O)C(=O)N([C@@H](CCC(=O)O)C(=O)O)C1=O (stereo partly drawn) [P091, (2S)-2-(5-Amino-3-((S)-5-(benzyloxycarbonylamino)-1-carboxypentyl)-2,4,6-trioxotetrahydropyrimidin-1(2H)-yl)pentanedioic Acid] | – | 23%
24 | O=C(O)CC[C@H](NC(=O)N(O)[C@@H](CCCCNC(=O)c1ccc(-n2cc(CCCF)nn2)cc1)C(=O)O)C(=O)O [P092, (S)-2-(3-((S)-1-Carboxy-5-(4-(4-(3-fluoropropyl)-1H-1,2,3-triazol-1-yl)benzamido)pentyl)-3-hydroxyureido)pentanedioic Acid] | 31 nM | 99%
25 | O=C(O)CC[C@H](NC(=O)CN(O)C(=O)CCCCn1cc(CCCF)nn1)C(=O)O [P093, (S)-2-(2-(5-(4-(3-Fluoropropyl)-1H-1,2,3-triazol-1-yl)-N-hydroxypentanamido)-acetamido)pentanedioic Acid] | – | 16%
26 | O=C(O)CC[C@@H](C(=O)O)N1C(=O)CC(=O)N([C@@H](CCCCNC(=O)CCCc2ccc(-n3cc(CCCF)nn3)cc2)C(=O)O)C1=O [P094, (S)-2-(3-((S)-1-Carboxy-5-(4-(4-(4-(3-fluoropropyl)-1H-1,2,3-triazol-1-yl)phenyl)butanamido)pentyl)-2,4,6-trioxotetrahydropyrimidin-(2H)-yl)pentanedioic Acid] | – | 7%
27 | O=C(O)CC[C@@H](C(=O)O)N1C(=O)CC(=O)N(Cc2ccccc2)C1=O [P095, (S)-2-(3-Benzyl-2,4,6-trioxotetrahydropyrimidin-1(2H)-yl)pentanedioic Acid] | – | 4%
28 | O=C(O)CC[C@@H](C(=O)O)N1C(=O)/C(=C(/O)Cn2cc(CCCF)nn2)C(=O)N(Cc2ccccc2)C1=O [P096, (S,E)-2-(3-Benzyl-5-(2-(4-(3-fluoropropyl)-1H-1,2,3-triazol-1-yl)-1-hydroxyethylidene)-2,4,6-trioxotetrahydropyrimidin-1(2H)-yl)pentanedioic Acid] | – | 3%
29 | O=C(O)CCC(NC(=O)C(=O)N[C@@H](CCC(=O)O)C(=O)O)C(=O)O (stereo partly drawn) [P098, (2′S)-2,2′-(Oxalylbis(azanediyl))dipentanedioic Acid] | – | 23%
30 | O=C(O)CCC(NS(=O)(=O)N[C@@H](CCC(=O)O)C(=O)O)C(=O)O (stereo partly drawn) [P099, (2S)-2,2′-(Sulfonylbis(azanediyl))dipentanedioic Acid] | – | 0%
31 | O=C(O)CC[C@H](NC(=O)NNC(=O)CCCc1ccc(-n2cc(CCCF)nn2)cc1)C(=O)O [P100, (S)-2-(2-(4-(4-(4-(3-Fluoropropyl)-1H-1,2,3-triazol-1-yl)phenyl)butanoyl)-hydrazinecarboxamido)pentanedioic Acid] | – | 3%
32 | O=C(O)CC[C@@H](C(=O)O)N1C(=O)/C(=C(\O)CCCc2ccc(-n3cc(CCCF)nn3)cc2)C(=O)N(Cc2ccccc2)C1=O [P101, (S,Z)-2-(3-Benzyl-5-(4-(4-(4-(3-fluoropropyl)-1H-1,2,3-triazol-1-yl)phenyl)-1-hydroxybutylidene)-2,4,6-trioxotetrahydropyrimidin-1(2H)-yl)pentanedioic Acid] | – | 0%
